Paper PMC3003753 (Journal of medicinal chemistry, 2010)
Blank lines part the entries; values can stand above or below the compound they belong to.

Experiments:
[1] = tested on: carrageenan-induced mouse paw inflammation; experiment: Carrageenan-induced paw edema model; type: in vivo; conditions: for Paw inflammation inhibition percentage: 10 mg/kg i.p. daily; for Paw inflammation suppression compared with 4: 10 mg/kg i.p. versus 4 at 300 µg/kg
[2] = tested on: MDA-MB-231 cells in Matrigel plugs; experiment: In vivo tumor angiogenesis assay; design: species or system mouse; conditions: 300 µg/kg daily s.c., 10 days, nude mice
Melanoma OMM2.3 cells = experiment: Uveal melanoma micrometastasis mouse model; type: in vivo; conditions: for Number of hepatic micrometastases: control around 90
[3] = tested on: bleomycin induced lung fibrosis; experiment: Bleomycin induced lung fibrosis model; type: in vivo, mouse; conditions: 300 µg/kg i.p. daily, day 20 after bleomycin
CCR5 = CCR5 (Homo sapiens, UniProt P51681); experiment: cAMP assay, U87CD4CCR5 cells stimulated with CCL5; type: cell-based; conditions: 150 ng/mL CCL5
[4] = tested on: CXCR4/CXCL12-mediated Matrigel invasion of MDA-MB-231 cells; experiment: Matrigel invasion assay, CXCL12 as chemoattractant; type: cell-based; conditions: 10 nM compound, 200 ng/mL CXCL12, 0.01 µM
CXCR4 [5] = target: T1, CXCR4 (Homo sapiens, UniProt P61073); experiment: Ca2+ flux induced by CXCR4/CXCL12 interaction; type: cell-based; conditions: Gq pathway; data not shown
CXCR4 [6] = target: T1, CXCR4; experiment: cAMP assay; type: cell-based
[7] = Blood clearance and bioavailability of 26 in mice; conditions: mouse, in vivo
[8] = Further preclinical studies of compound 5; type: in vivo; conditions: data not shown

T1 sequence (P61073 whole entry): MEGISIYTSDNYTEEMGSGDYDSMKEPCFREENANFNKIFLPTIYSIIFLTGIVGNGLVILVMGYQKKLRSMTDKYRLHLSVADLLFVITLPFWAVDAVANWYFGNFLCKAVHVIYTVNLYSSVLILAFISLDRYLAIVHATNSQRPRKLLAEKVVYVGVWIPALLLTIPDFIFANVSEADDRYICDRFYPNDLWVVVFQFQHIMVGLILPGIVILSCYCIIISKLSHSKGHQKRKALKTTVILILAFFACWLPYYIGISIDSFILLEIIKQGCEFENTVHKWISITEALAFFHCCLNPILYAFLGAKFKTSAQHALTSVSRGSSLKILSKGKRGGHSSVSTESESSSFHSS
CCR5, sequence (P51681 whole entry): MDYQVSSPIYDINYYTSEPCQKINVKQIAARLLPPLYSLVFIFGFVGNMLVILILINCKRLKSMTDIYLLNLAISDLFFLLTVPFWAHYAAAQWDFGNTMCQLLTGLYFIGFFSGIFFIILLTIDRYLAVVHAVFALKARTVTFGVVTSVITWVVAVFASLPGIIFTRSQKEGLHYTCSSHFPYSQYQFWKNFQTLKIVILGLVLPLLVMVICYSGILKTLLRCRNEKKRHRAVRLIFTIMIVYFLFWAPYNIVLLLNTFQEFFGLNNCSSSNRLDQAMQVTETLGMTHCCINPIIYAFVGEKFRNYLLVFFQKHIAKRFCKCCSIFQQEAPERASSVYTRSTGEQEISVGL

Compound: Clc1cccc(NCc2ccc(CNc3ncccn3)cc2)n1 [Compound 10g, N-(4-((6-chloropyridin-2-ylamino)methyl)benzyl)pyrimidin-2-amine]
Paw inflammation inhibition percentage ([1]; C57BL/6J mice): more than 50%
Paw inflammation suppression compared with 4 [1]: comparable to 4

Compound: TN14003 [Compound 4]
Angiogenesis inhibition (hemoglobin content of Matrigel plugs) [2]: about 70%
Decrease of hepatic micrometastases (Melanoma OMM2.3 cells; 300 µg/kg i.p. daily, nude mice): about 50%
Number of hepatic micrometastases (Melanoma OMM2.3 cells; 300 µg/kg i.p. daily): around 40
Paw inflammation suppression ([1]; 300 µg/kg i.p. daily, C57BL/6J mice): about 50%
Lung fibrosis inhibition [3]: 85%

Compound: Fc1cnc(Cl)nc1NCc1ccc(CNc2ccnc(NCCN3CCOCC3)n2)cc1 [Compound 26]
Invasion Inhibition 10nM [4]: > 60%
Number of hepatic micrometastases (Melanoma OMM2.3 cells; 10 mg/kg i.p. daily): around 40
Paw inflammation suppression compared with 4 [1]: comparable to 4
Block of Ca2+ flux induced by CXCR4/CXCL12 interaction (CXCR4 [5]): do not block
IC50 (CXCR4 [6]): ~1 nM
Interrupting CXCL12/CXCR4-mediated cAMP modulation (CXCR4 [6]): effective
Effect on blocking CCL5 stimulating CCR5 (cAMP) (CCR5): no significant effect
Oral bioavailability [7]: lack of oral bioavailability

Compound: c1ccc(NCc2ccc(CNc3ccccn3)cc2)nc1 [Compound 5, WZ811]
Effect on blocking CCL5 stimulating CCR5 (cAMP) (CCR5): no significant effect
Bioavailability [8]: poor bioavailability
In vivo efficacy [8]: failed to exhibit any in vivo efficacy

Compound: CSc1nccc(NCc2ccc(CNc3ncc(F)cn3)cc2)n1 [Compound 21b, 5-fluoro-N-(4-((2-(methylthio)pyrimidin-4-ylamino)methyl)benzyl)pyrimidin-2-amine]
Invasion Inhibition 10nM [4]: 62%
Paw inflammation suppression compared with 4 [1]: comparable to 4

Compound: Fc1cccc(NCc2ccc(CNc3ncccn3)cc2)n1 [Compound 10e, N-(4-((6-fluoropyridin-2-ylamino)methyl)benzyl)pyrimidin-2-amine]
Paw inflammation inhibition percentage ([1]; C57BL/6J mice): more than 50%
Paw inflammation suppression compared with 4 [1]: comparable to 4

Second part, the compound after the results:

Effect on blocking CCL5 stimulating CCR5 (cAMP) (CCR5): no significant effect
Compound: CCOCCN1CCN(C(=O)c2cnc(NCc3ccc(CNc4ncc(F)cn4)cc3)nc2C(F)(F)F)CC1 [Compound 21c, (4-(2-ethoxyethyl)piperazin-1-yl)(2-(4-((5-fluoropyrimidin-2-ylamino)methyl)benzylamino)-4-(trifluoromethyl)pyrimidin-5-yl)methanone]

Block of Ca2+ flux induced by CXCR4/CXCL12 interaction (CXCR4 [5]): do not block
Interrupting CXCL12/CXCR4-mediated cAMP modulation (CXCR4 [6]): effective
Compound: Fc1cnc(NCc2ccc(CNc3nccc(C(F)(F)F)n3)cc2)nc1 [Compound 21a, N-(4-((5-fluoropyrimidin-2-ylamino)methyl)benzyl)-4-(trifluoromethyl)pyrimidin-2-amine]
